Experimental data reported in patent publication US20240190843A1, “CRYSTALLINE FORM OF A SHP2 INHIBITOR” (Array BioPharma Inc., priority 2021, published 2024).

Assay: Comparative stability of stored solid samples (HPLC purity, PXRD, appearance after 7 days)
Format: physicochemical
Protocol: The chemical stability data using HPLC was evaluated on samples stored at several conditions as listed in Table 6 between free base hemihydrate Form 1 and amorphous form.
HPLC Method • Column: LC\027 Agilent Poroshell 120 EC-C18 150×4.6 mm, 2.7 μm • Column Temperature: 40° C. • Autosampler Temperature: Ambient • UV wavelength: 220 nm • Injection Volume: 4.00 μL • Flow Rate: 1.5 mL/min • Mobile Phase A: 0.02% TFA in H2O • Mobile Phase B: 0.02% TFA in MeCN • Time (minutes) Solvent B [%] • 0 20 • 3 20 • 15 70 • 15.1 95 • 16 95 • 16.1 20 • 20.0 20

SMILES | HPLC purity (%) after 7 days (stored at 25° C./60% RH) | Observations after 7 days (stored at 25° C./60% RH) | PXRD after 7 days (stored at 25° C./60% RH) | HPLC purity (%) after 7 days (stored at 40° C./75% RH) | Observations after 7 days (stored at 40° C./75% RH) | PXRD after 7 days (stored at 40° C./75% RH) | HPLC purity (%) after 7 days (stored at 80° C.) | Observations after 7 days (stored at 80° C.) | PXRD after 7 days (stored at 80° C.) | HPLC purity (%) after 7 days (stored at Ambient) | Observations after 7 days (stored at Ambient) | PXRD after 7 days (stored at Ambient)
Nc1nccc(Sc2cnc(N3CCC4(CC3)Cc3ccccc3[C@H]4N)nn2)c1Cl [Amorphous, (S)-1′-(6-((2-amino-3-chloropyridin-4-yl)thio)-1,2,4-triazin-3-yl)-1,3-dihydrospiro[indene-2,4′-piperidin]-1-amine] | 82.8% | Vibrant | Amorphous | 86.7% | Vibrant | Amorphous | 54.7% | Brown | Amorphous | 71.7% | Vibrant | Amorphous
Nc1nccc(Sc2cnc(N3CCC4(CC3)Cc3ccccc3[C@H]4N)nn2)c1Cl [Form 1, (S)-1′-(6-((2-amino-3-chloropyridin-4-yl)thio)-1,2,4-triazin-3-yl)-1,3-dihydrospiro[indene-2,4′-piperidin]-1-amine] | 97.5% | Yellow | Form 1 | 97.6% | Yellow | Form 1 | 97.1% | Yellow | Form 1 | 97.1% | Yellow | Form 1
